On the set-up of series [1]: method as in PMID 29318022. To be noted: generally well tolerated; cited from earlier work.
Series [2] in a line: MTT cytotoxicity assay, HCT116 cells. As to conditions: human, HCT116 cells (human colorectal carcinoma), 100 μM, 48 h of treatment, read-out: cell viability. The series is classed as cell-based, human. How it is done:
(§1) Cells were cultured in a humidified incubator at 37 °C under 5% CO2. Human colorectal carcinoma (HCT116) cells were grown in McCoy’s 5A Medium (ATCC, Catalog No. 30-2007), human breast adenocarcinoma (MCF-7) and human dermal fibroblasts (HDF-A) cells were maintained in Dulbecco’s Modified Eagle’s Medium (DMEM, Sigma D5546) supplemented with 2 mM L-glutamine. Human embryonic kidney (HEK293) cell line was cultured in Dulbecco’s Modified Eagle’s Medium (DMEM, Gibco 31966-021). All culture media were supplemented with 1% Penicillin-Streptomycin (Sigma-Aldrich, P4333) and 10% fetal bovine serum (Gibco, 10270-106). Cells were sub-cultured at approximately 80–90% confluency to maintain the culture in the logarithmic growth phase.
(§2) Cells were seeded at a 96-well plate at the density of 7 × 10^3 cells per well and allowed to grow for 24 h. Afterward, the medium was aspirated and fresh medium was added (200 μL) with serial dilutions (100 − 10 μM) of tested compounds or DMSO at corresponding concentrations as a control. Following 48 h of incubation, the medium was replaced with phenol red-free medium (100 μL) containing MTT (3-(4,5-dimethylthiazol-2-yl)-2,5-diphenyl-2H-tetrazolium bromide, 0.5 mg/mL) and replaced in the incubator for 4 h. The formed formazan was dissolved in DMSO (100 μL) followed by incubation of the mixture at 37 °C for 10 min. The absorbance was measured at 540 nm. After blank subtraction, the half maximal effective concentration (EC50) was calculated by GraphPad Prism software (GraphPad Software Inc, San Diego, CA, USA).
Background: Tetrazolium assays rely on reduction of a dye to a coloured formazan, in cell work by metabolically active cells.

Series [3] has as its system HCT116 cells. In words: MTT cytotoxicity assay, HCT116 cells. It counts as cell-based, human. To be noted: for IC50: Homo sapiens, HCT-116, 48 h, mean ± SEM; for cell viability (in words): 100 μM, 48 h of treatment. How it is done:
as §1, §2

The subject of series [4] is MCF-7 cells. In words: MTT cytotoxicity assay, MCF-7 cells. The series is classed as cell-based. To be noted: Homo sapiens, MCF7, 48 h, mean ± SEM. How it is done: as §1, §2
Series [5] relates to HEK293 cells. In words: MTT cytotoxicity assay, HEK293 cells. As to conditions: Homo sapiens, 48 h, mean ± SEM. It counts as cell-based. The protocol:
as §1, §2

Series [6] concerns HDF-A cells. In words: MTT cytotoxicity assay, HDF-A cells. It counts as cell-based. To be noted: Homo sapiens, HDFa. The protocol:
as §1, §2

Series [7] has as its system HCT116 cells. In words: Immunofluorescence of microtubular network (anti-α-tubulin 12G10). As to conditions: 60 µm of compound, 24 h, anti-α-tubulin staining. It counts as cell-based, human. How it is done: Cells were seeded on coverslips at a 24-well plate at a density of 5 × 10^4 cells per well and allowed to grow overnight. Next medium was replaced with a medium containing 60 μM solution of the selected compound and incubated for 24 h. Then, cells were fixed and permeabilized with 100% methanol at −20 °C for 15 min and subsequently washed three times with PBS at room temperature. After 1 h blocking with 3% BSA/PBS at 4 °C, slides were incubated with anti-alpha-tubulin 12G10 primary antibody (Developmental Studies Hybridoma Bank, University of Iowa, Iowa City, IA, USA) (diluted to 2 µg/mL in 3% BSA/PBS) overnight at 4 °C. After 3 × 10 min washing with PBS, slides were incubated with AlexaFluor 555-conjugated secondary antibody (diluted to 50 ng/mL in 3% BSA/PBS) (Thermo Fisher Scientific, Waltham, MA, USA, A31570) for 1 h at room temperature. After washing (3 × 10 min with PBS), slides were mounted in Fluoromount-G (Southern Biotech., Birmingham, AL, USA). Cells were recorded using Leica TCS SP8 (Leica Microsystems, Wetzlar, Germany) confocal microscope.

Series [8] concerns U87 (glioblastoma) cells. Details: method as in PMID 31865147. To be noted: cited from earlier work.
Series [9] deals with HeLa (cervical cancer) cells. The arrangement: method as in PMID 31865147. To be noted: cited from earlier work.
For series [10], the system named is normal cell lines. Details: method as in PMID 31865147. As to conditions: cited from earlier work.
Where [11] appears, read: MTT, 48 h, mean ± SEM, read-out: HDF-A IC50.

Like-named read-outs stand apart in the source and are kept apart here.

Turning to `COc1cccc(O)c1/C=C/c1ccc([N+](=O)[O-])cc1[N+](=O)[O-]`, the melting point amounted to 212 °C.
`O=[N+]([O-])c1ccc2c(c1)C=Cc1ccc([N+](=O)[O-])cc1O2` came in with a melting point of 216 °C.
For the compound `COc1ccc(/C=C\c2cc(OC)c(OC)c(OC)c2)cc1OP(=O)(O)O` [CA4P/fosbretabulin, combretastatin A-4 phosphate], in series [1], the side effect result is “acute but transient hypertension”.
As for `O=[N+]([O-])c1ccc(/C=C/c2ccccc2O)c([N+](=O)[O-])c1` [Compound 1a, (E)-2-hydroxy-2′,4′-dinitrostilbene], the melting point was 192 °C. Moreover, the viability at 48 h, 100 µM in [2] is < 30%. For the same compound, the IC50 in [3] stood at 23 ± 1 µM. This compound registered a half-inhibitory concentration (IC50) in series [4] of 36 ± 2 µM. In addition, the IC50 in series [5] worked out at 18 ± 1 µM. Besides, the IC50 in [6] (setting [11]) came out at 38 ± 1 µM.
On to `COc1cccc(/C=C/c2ccc([N+](=O)[O-])cc2[N+](=O)[O-])c1O` [Compound 1b, (E)-2-hydroxy-3-methoxy-2′,4′-dinitrostilbene], for which the melting point worked out at 182 °C. Also, the “cell viability (in words)” value in series [3] is given as “only minimally affected”.
For the compound `COc1ccc(/C=C/c2ccc([N+](=O)[O-])cc2[N+](=O)[O-])c(O)c1` [Compound 1c, (E)-2-hydroxy-4-methoxy-2′,4′-dinitrostilbene], the viability at 48 h, 100 µM in series [2] was < 30%. For the same compound, the IC50 was 38 ± 5 µM in series [3], 43 ± 2 µM in series [4], 34 ± 4 µM in series [5] and 40 ± 4 µM in series [6] (setting [11]).
Take `COc1ccc(O)c(/C=C/c2ccc([N+](=O)[O-])cc2[N+](=O)[O-])c1` [Compound 1d, (E)-2-hydroxy-5-methoxy-2′,4′-dinitrostilbene]: the melting point turned out to be 168 °C. In [2], the viability at 48 h, 100 µM was < 30%. Also, the IC50 in [3] came to 18 ± 3 µM. This compound also showed an IC50 in [4] of 47 ± 1 µM. In series [5], half-maximal inhibition (IC50) required 33 ± 2 µM. In addition, the IC50 in series [6] (setting [11]) came out at 40 ± 2 µM. Besides, in series [7], the “effect on microtubular network” value is listed as “density of the microtubular network was decreased”.
Compound `COc1cc(O)c(/C=C/c2ccc([N+](=O)[O-])cc2[N+](=O)[O-])cc1OC` [Compound 1f, (E)-2-hydroxy-4,5-dimethoxy-2′,4′-dinitrostilbene] had a melting point of 221 °C. Also, the “cell viability (in words)” value in [3] is given as “only minimally affected”.
In turn, `O=[N+]([O-])c1ccc(/C=C/c2ccc(O)cc2O)c([N+](=O)[O-])c1` [Compound 1i, (E)-2,4-dihydroxy-2′,4′-dinitrostilbene] displayed a melting point of 201 °C. Also, the viability at 48 h, 100 µM in series [2] was < 30%. 52 ± 2 µM corresponded to half-maximal inhibition in [3] (IC50). The IC50 in series [4] worked out at 69 ± 3 µM. For the same compound, half-maximal inhibition in series [5] (IC50) was put at 54 ± 2 µM. The IC50 in [6] (setting [11]) was 41 ± 2 µM.
For `O=[N+]([O-])c1ccc2c(c1)Oc1ccccc1C=C2` [Compound 2a, 3-nitrodibenzo[b,f]oxepine], the melting point was 156 °C.
For `COc1cccc2c1Oc1cc([N+](=O)[O-])ccc1C=C2` [Compound 2b, 6-methoxy-3-nitrodibenzo[b,f]oxepine], the melting point was 184 °C. For the same compound, the “cell viability (in words)” value in series [3] is on record as “only minimally affected”.
As for `COc1ccc2c(c1)Oc1cc([N+](=O)[O-])ccc1C=C2` [Compound 2c, 3-methoxy-7-nitrodibenzo[b,f]oxepine], the melting point worked out at 189 °C.
On the same count and under the same terms, under `COc1ccc2c(c1)C=Cc1ccc([N+](=O)[O-])cc1O2` [Compound 2d, 2-methoxy-7-nitrodibenzo[b,f]oxepine] stands 167 °C.
Regarding `COc1cc2c(cc1OC)Oc1cc([N+](=O)[O-])ccc1C=C2` [Compound 2f, 2,3-dimethoxy-7-nitrodibenzo[b,f]oxepine], the “cell viability (in words)” value in series [3] was “only minimally affected”.
`O=[N+]([O-])c1ccc2c(c1)Oc1ccc3ccccc3c1C=C2` [Compound 2h, 9-nitrobenzo[b]naphtho[1,2-f]oxepine] showed a melting point of 197 °C. In [8], the “anti-cancer activity compared with HTC116 cells” value is recorded as “significantly more active”. Besides, the “anti-cancer activity compared with HTC116 cells” value in [9] is given as “significantly more active”. Further, the “activity in normal cell lines” value in series [10] was “severe activity”.
`O=[N+]([O-])c1ccc2c(c1)Oc1cc(O)ccc1C=C2` [Compound 2i, 7-nitrodibenzo[b,f]oxepin-3-ol] displayed a melting point of 164 °C. Moreover, in series [2], the viability at 48 h, 100 µM is < 30%. This compound came in with an IC50 in series [3] of 55 ± 4 µM. This compound had an IC50 in series [4] of 67 ± 6 µM. For the same compound, the IC50 in series [5] was 88 ± 5 µM. Further, the IC50 in series [6] (setting [11]) worked out at 93 ± 7 µM.
`CC(=O)Oc1ccc2c(c1)Oc1cc([N+](=O)[O-])ccc1C=C2` [Compound 2j, 7-nitrodibenzo[b,f]oxepin-3-yl acetate] had a melting point of 133 °C. In addition, the viability at 48 h, 100 µM in series [2] is < 30%. The same compound registered an IC50 in series [3] of 53 ± 3 µM. This compound displayed an IC50 in series [4] of 36 ± 3 µM. In [5], this compound gave an IC50 of 85 ± 4 µM.
Take `COc1cccc2c1Oc1cc(N)ccc1C=C2` [Compound 3b, 6-methoxydibenzo[b,f]oxepin-3-amine]: the “cell viability (in words)” value in series [3] is “only minimally affected”.
`COc1ccc2c(c1)C=Cc1ccc(N)cc1O2` [Compound 3d, 8-methoxydibenzo[b,f]oxepin-3-amine] displayed a melting point of 158 °C.
For `COc1cc2c(cc1OC)Oc1cc(N)ccc1C=C2` [Compound 3f, 7,8-dimethoxydibenzo[b,f]oxepin-3-amine], the “cell viability (in words)” value in series [3] is on record as “only minimally affected”.
`Nc1ccc2c(c1)Oc1ccc3ccccc3c1C=C2` [Compound 3h, benzo[b]naphtho[1,2-f]oxepin-9-amine]: the melting point is 172 °C. Further, the viability at 48 h, 100 µM in series [2] is < 30%. Also, in series [3], the IC50 is 66 ± 2 µM. The compound further yielded an IC50 in series [5] of 48 ± 3 µM. Also, in series [6] (predicted IC50, above the maximum concentration tested (100 μM), read-out: HDF-A IC50 (predicted)), the 50% inhibitory concentration (IC50) was > 100 µM.
For `CC(=O)Oc1ccc2c(c1)Oc1cc(N)ccc1C=C2` [Compound 3j, 7-aminodibenzo[b,f]oxepin-3-yl acetate], the melting point came to 145 °C.

By melting point is commonly meant the temperature of the solid-liquid transition. As a reminder, the viability is a per cent measure of how many cells are alive, often set against a control. As a reminder, the IC50 is the concentration at which inhibition is half-maximal.

The record behind these values is publication PMC10146957, “Systematic Studies on Anti-Cancer Evaluation of Stilbene and Dibenzo[b,f]oxepine Derivatives” (Molecules, 2023).
